What was measured:
[1] = tested on: NadD; assay: NadD inhibition, enzyme species not stated at the place; assay type: biochemical; conditions: 1_02_1 compared with 1_13 and 1_15 (Fig. 4A)
[2] = target: baNadD (Bacillus anthracis, UniProt C3L5T6); assay type: biochemical
Sequence of baNadD (C3L5T6 whole entry, looked up): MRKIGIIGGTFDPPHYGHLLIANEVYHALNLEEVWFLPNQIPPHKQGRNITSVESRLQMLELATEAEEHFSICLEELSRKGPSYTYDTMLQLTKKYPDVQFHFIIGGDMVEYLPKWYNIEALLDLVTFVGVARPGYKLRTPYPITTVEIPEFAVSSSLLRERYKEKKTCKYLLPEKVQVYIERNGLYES

Compound | improvement in activity over monomeric precursors 1_13 and 1_15 [1] | inhibition of baNadD [2]
O=C(CCC(=O)Nc1ccccc1Cl)N/N=C/c1ccc(/C=N/NC(=O)CCC(=O)Nc2ccccc2Cl)cc1 [Compound 1_02_1, N-(2-Chloro-phenyl)-3-(4-{[3-(2-chloro-phenylcarbamoyl)-propionyl]-hydrazonomethyl}-benzylidene-hydrazinocarbonyl)-propionamide] | more than 10 fold | –
{N'-(4-{Carboxymethyl-[3-(2-chloro-phenylcarbamoyl)-propionyl]-hydrazonomethyl}-benzylidene)-N-[3-(2-chloro-phenylcarbamoyl)-propionyl]-hydrazino}-acetic acid [Compound 1_02_2] | – | did not inhibit
